Results from patent US20130244255A1, “ANTIBODIES DIRECTED TO GPNMB AND USES THEREOF” (priority 2006, published 2013).
“Also recorded” adds a separate entry of the source.

What was measured:
TK-10 control cells [1] = test: Apoptosis analysis (Annexin V-FITC / PI); format: cell-based, human; conditions: TK-10, 48 hour, 1000 ng/mL
Protocol: (§1) Briefly, cells were pulsed at the indicated times with 30 μM of bromodeoxyuridine (BrdU, Sigma) for 30 min, harvested, fixed and permeabilized in methanol. Nascent DNA synthesis was detected by anti-bromodeoxyuridine-FITC (BD Biosciences, San Jose, Calif.) staining. Total DNA content was detected using propidium iodide (PI, Sigma). For apoptosis analysis, cells were treated as above and labeled with Annexin V-FITC followed by propidium iodide exclusion using the Annexin V-FITC Apoptosis Detection kit I (BD PharMingen, San Diego, Calif.) according to the manufacturer's protocols. Flow cytometry (as described in the previous Example) was used to assay both cell cycle and apoptosis studies.
(§2) To investigate this possibility, analysis of apoptosis using Annexin-V surface binding and loss of propidium iodide (PI) exclusion was performed.

SK-Mel-2 cells [2] = test: Apoptosis analysis (Annexin V-FITC / PI); format: cell-based, human; conditions: SK-Mel-2, 48 hour, 1000 ng/mL
Protocol: as §1, §2

[3] = tested on: SK-MEL-2 human melanoma xenograft; test: SK-MEL-2 human melanoma xenograft in athymic mice; format: in vivo
Protocol: Five- to 6-week old athymic mice (CD-1 nu/nu females), used for human tumor xenografts, were obtained from Harlan Laboratories (Indianapolis, Ind.). Animals were housed in specific pathogen-free conditions, according to the guidelines of the Association for Assessment and Accreditation of Laboratory Animal Care International (AAALAC International). Test animals were provided pelleted food and water ad libitum and kept in a room with conditioned ventilation (HVAC), temperature (22°±2° C.), relative humidity (55%±15%), and photoperiod (12 hr). All studies were carried out with approved institutional animal care and use protocols.
The tumor inhibitory activity of the CR011-MMAE immunoconjugate was measured in an anti-tumor xenograft model using athymic mice, according to published methods (see Geran et al., Cancer Chemother. Rep. 3:1-104 (1972)). […] When tumors became established (10-20 days), the animals were pair-matched into groups (n=6 mice/group), and treatment was administered by intravenous injection (tail vein).
The SK-MEL-2 human melanoma (ATCC #HTB-68) was derived from a metastatic site (skin of thigh) of a person with malignant melanoma, and the SK− MEL-5 human melanoma (ATCC #HTB-70) was derived from a metastatic site (axillary lymph node) of a person with malignant melanoma (see Fogh et al., J. Natl. Cancer Inst. 59: 221-226 (1977)). Both cell lines were obtained from the American Type Culture Collection.
The effects of treatment were monitored by repetitive tumor measurements across 2 diameters with Vernier calipers; tumor size (in mg) was calculated using a standard formula, (W^2×L)/2, assuming a specific gravity of 1.0. Tumor size and body weights were assessed twice weekly. Mice were examined daily, however, and moribund animals were humanely euthanized if clinical indications of excessive pain or distress were noted (i.e., prostration, hunched posture, paralysis/paresis, distended abdomen, ulcerations, abscesses, seizures, and/or hemorrhages) Animals with tumors exceeding 2,000 mg were removed from the study and euthanized humanely.
No apparent or statistically significant anti-tumor effects were observed. […] In preliminary studies, tumor regression was complete and was not followed by regrowth of the tumor despite lengthy observation periods (up to 200 days).

TK-10 control cells [4] = test: Cell cycle analysis (BrdU / propidium iodide flow cytometry); format: cell-based, human
Protocol: as §1
(§3) DNA synthesis and cell cycle progression were determined by flow cytometry (Table 52).

SK-Mel-2 cells [5] = test: as above; format: cell-based, human
Protocol: as §1, §3

MOLT-4 = test: Clonogenic assay (methylcellulose) with 1.15.1-AE; format: cell-based, human
Protocol: (§4) Lymphoma or leukemia cell lines were mixed with methylcellulose base media (R&D Systems, USA) and in various concentrations of unconjugated and Auristatin E-conjugated 1.15.1 antibody before plating onto 6-well tissue culture plates (Becton Dickinson, Franklin Lakes, N.J., USA). […] Plates were incubated at 37° C. and examined daily. On days 14-18, colonies on the plates were counted.

DEL = test: Clonogenic assay (methylcellulose) with 1.15.1-AE; format: cell-based, human
Protocol: as §4

Jurkat = test: Clonogenic assay (methylcellulose) with 1.15.1-AE; format: cell-based, human
Protocol: as §4

Karpas 299 = test: Clonogenic assay (methylcellulose) with 1.15.1-AE; format: cell-based, human
Protocol: as §4

KG-1 = test: Clonogenic assay (methylcellulose) with 1.15.1-AE; format: cell-based, human
Protocol: as §4

SUP-M2 = test: Clonogenic assay (methylcellulose) with 1.15.1-AE; format: cell-based, human
Protocol: as §4

CCRF-CEM = test: Clonogenic assay (methylcellulose) with 1.15.1-AE; format: cell-based, human
Protocol: as §4

SU-DHL-1 = test: Clonogenic assay (methylcellulose) with 1.15.1-AE; format: cell-based, human
Protocol: as §4

PL-21 = test: Clonogenic assay (methylcellulose) with 1.15.1-AE; format: cell-based, human
Protocol: as §4

XF-498 = test: Clonogenic assay with CR011-vcMMAE; format: cell-based, human
Protocol: (§5) Cells were plated in 96-well plates and allowed to recover overnight. […] The cells were then transferred into 6-well plates and allowed to form colonies. Colonies were stained with Giemsa stain (Sigma) and counted. The surviving cell fractions were calculated based upon the ratio of the treated sample and the untreated control. The results were expressed as a percentage of control using GraphPad Prism Version 4 software.

SNB-78 = test: Clonogenic assay with CR011-vcMMAE; format: cell-based, human
Protocol: as §5

## CR011: fully human monoclonal antibody that specifically binds to GPNMB; VH SEQ ID NO: 20, VL SEQ ID NO: 29
TK-10 control cells [1]
  % AnnV+/PI+ UR: 0.34%
  % AnnV+/PI− LR: 0.55%
  % AnnV−/PI+ UL: 0.83%
SK-Mel-2 cells [2]
  % AnnV+/PI+ UR: 0.45%
  % AnnV+/PI− LR: 4.74%
  % AnnV−/PI+ UL: 0.36%
[3]; doses identical to that contained in the intact immunoconjugate (5 mg/kg q4d×4)
  tumor growth inhibition by components of the immunoconjugate (in words): lack of responses; also recorded: lack of tumor growth inhibition
TK-10 control cells [4]; TK-10, 24 hour, 1000 ng/mL
  % G1: 42.0%
  % G2/M: 6.3%
  % S-phase: 39.8%
  % Sub-G1: 0.3%
SK-Mel-2 cells [5]; SK-Mel-2, 24 hour, 1000 ng/mL
  % G1: 63.6%
  % G2/M: 6.4%
  % S-phase: 25.2%
  % Sub-G1: 0.5%

## CR011-vcMMAE: CR011 conjugated to monomethyl auristatin E through a protease cleavable valine-citrulline linker; approx. 4 drugs per antibody
[3]; 1 mg/kg single bolus dose, day 58
  tumor size reached: ≥ 2,000 mg
[3]; 10 mg/kg single bolus dose
  tumor response (in words): complete regressions
[3]; CR011-vcMMAE i.v. q4d×4, P≦0.014
  earliest significant treatment effects, time after treatment commenced: 4 days
[3]; i.v., CR011-vcMMAE 20, 10, 5 or 2.5 mg/kg q4d×4, vinblastine […] q4d×4
  anti-tumor effect (in words): tumors rapidly diminished in size for the majority of the test animals
[3]; mouse, in vivo
  treatment effects on gross examination: no abnormal treatment effects
[3]; twice weekly body weight determinations
  effects of treatment on body weight or weight gain: no observable or statistically significant effects
MOLT-4
  Clonogenic Assay with 1.15.1-AE IC50 in ng/mL: No effect (repeating)
DEL
  Clonogenic Assay with 1.15.1-AE IC50 in ng/mL: No effect
Jurkat
  Clonogenic Assay with 1.15.1-AE IC50 in ng/mL: No effect (repeating)
Karpas 299
  Clonogenic Assay with 1.15.1-AE IC50 in ng/mL: Inconclusive
KG-1
  Clonogenic Assay with 1.15.1-AE IC50 in ng/mL: No growth
SUP-M2
  Clonogenic Assay with 1.15.1-AE IC50 in ng/mL: No growth
CCRF-CEM
  Clonogenic Assay with 1.15.1-AE IC50 in ng/mL: No growth
SU-DHL-1
  Clonogenic Assay with 1.15.1-AE IC50 in ng/mL: No effect
PL-21
  Clonogenic Assay with 1.15.1-AE IC50 in ng/mL: No effect
XF-498
  IC50: approximately 215 ng/mL
SNB-78
  IC50: ~0.45 µg/mL
TK-10 control cells [4]; 1000 ng/mL
  effect on cycling of GPNMB-negative cells: did not affect the cycling
TK-10 control cells [4]; TK-10, 24 hour, 100 ng/mL
  % G1: 51.1%
  % S-phase: 35.1%
  % Sub-G1: 0.7%
TK-10 control cells [4]; TK-10, 24 hour, 1000 ng/mL
  % G1: 52.6%
  % S-phase: 34.2%
  % Sub-G1: 0.8%
SK-Mel-2 cells [5]; 1000 ng/mL, 24 hrs
  decreased percentage of cells in G1 and S-phase vs untreated cells: 10%
SK-Mel-2 cells [5]; 1000 ng/mL, 48 hr
  reduced percentage of cells in G1 and S-phase: 11%
SK-Mel-2 cells [5]; SK-Mel-2, 24 hour, 100 ng/mL
  % G1: 56.0%
  % S-phase: 26.9%
  % Sub-G1: 0.2%
SK-Mel-2 cells [5]; SK-Mel-2, 24 hour, 1000 ng/mL
  % G1: 43.7%
  % S-phase: 20.0%
